{"source": "paper PMC9398908", "about": "“GLP-1-mediated delivery of tesaglitazar improves obesity and glucose metabolism in male mice” (Nature Metabolism, 2022)", "key": {"[1]": {"test_system": "C57BL/6J DIO mice", "experiment": "Urinary albumin:creatinine ratio in DIO mice (Extended Data Fig. 2g)", "format": "in vivo, mouse", "settings": "14-day treatment, 50 nmol kg−1 per day, in words", "text": "Frozen urine samples from heterozygous GIPR^dn mice in a CD1 background (n = 3) served as positive controls. […] For each treatment group, uACR was computed as a ratio of urinary albumin (mg ml^−1) to urinary creatinine (mg ml^−1)."}, "[2]": {"test_system": "C57BL/6J DIO mice", "experiment": "Fasting blood glucose, insulin and HOMA-IR in DIO mice (Fig. 2e,f; Extended Data Fig. 3c)", "format": "in vivo, mouse", "settings": "for HOMA IR: Suppl. Fig. 3c", "protocol": "(§1) Glp1r^−/− mice were kindly provided by D. Drucker (University of Toronto, Canada). All wildtype and knockout mice used in our studies were in-house bred on a C57BL/6J background. Mice were double-housed and kept in a constant environment with the ambient temperature set to 22 ± 2 °C with constant humidity (45–65%) and a 12 h/12 h light/dark cycle with lights off from 06:00 until 18:00. For studies in DIO mice, male C57BL/6J mice were fed with a high-fat diet comprising 58% kilocalories from fat (D12331, Research Diets). db/db mice were fed with a normal chow diet (T1314, Altromin GmbH) throughout the study. At the beginning of each experiment, mice were equally distributed into experimental groups according to their body weight and body composition. All animal studies were approved by the State of Bavaria, Germany, or the Insitutional Animal Care and Use Committee of the University of Cincinnati, OH, USA and conducted on the basis of the underlying animal welfare law of the respective countries. Compounds were dissolved in PBS and were s.c. administered with a volume of 5 μl g^−1 body weight in the indicated doses between 15:00 and 16:00."}, "[3]": {"target": "T1, hGLP-1R (Homo sapiens, UniProt P43220)", "T1 construct": "host or cells: HEK293T, transient transfection", "T1 sequence (P43220 24-463)": "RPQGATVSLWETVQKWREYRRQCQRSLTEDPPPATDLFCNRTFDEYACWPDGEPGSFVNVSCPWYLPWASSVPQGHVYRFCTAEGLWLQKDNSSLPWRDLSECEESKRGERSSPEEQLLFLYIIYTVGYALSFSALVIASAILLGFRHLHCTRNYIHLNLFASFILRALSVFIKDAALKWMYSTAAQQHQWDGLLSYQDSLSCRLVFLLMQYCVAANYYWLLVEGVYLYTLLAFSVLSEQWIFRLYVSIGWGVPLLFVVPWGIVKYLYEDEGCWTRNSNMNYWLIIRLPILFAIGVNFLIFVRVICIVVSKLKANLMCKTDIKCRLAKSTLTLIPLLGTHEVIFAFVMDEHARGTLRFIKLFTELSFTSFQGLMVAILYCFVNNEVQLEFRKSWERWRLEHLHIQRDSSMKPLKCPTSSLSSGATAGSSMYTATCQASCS", "experiment": "Ligand-induced hGLP-1R-GFP Mini-Gαs recruitment (BRET) in mouse MIN6 β-cells", "format": "cell-based", "settings": "Fig. 1d, in words", "protocol": "(§2) HEK293T cells (700,000 per well) were seeded in six-well plates and incubated to 70% confluency in DMEM (10% FBS, 1% Pen/Strep). Twenty-four hours following seeding, transient transfections were performed using Lipofectamine 2000 (catalogue no. 11668019, Invitrogen) according to the manufacturer’s protocol without including additional transformation carrier DNA.\n(§3) Twenty-four hours following transfection, HEK293T cells or MIN6 cells were washed with PBS and resuspended in FluoroBrite phenol red-free complete media (catalogue no. A1896701, Life Technologies) containing 5% FBS and 2 mM of L-glutamine (catalogue no. 25030081, Life Technologies). 100,000 cells per well were plated into poly-D-lysine-coated (catalogue no. P6403, Sigma-Aldrich) 96-well white polystyrene LumiNunc plates (catalogue no. 10072151, Thermo Fisher Scientific). After 24 h, the media was replaced with PBS (catalogue no. 10010056, Gibco) containing 10 μM of coelenterazine-h (catalogue no. S2011, Promega) or 1:500 dilution of NanoGlo (catalogue no. N1110, Promega). BRET measurements were taken every 30 s–2 min using a PHERAstar FS multi-mode microplate reader. […] The resulting ligand-specific ratiometric BRET signals were normalized to vehicle producing the ‘ligand-induced BRET ratio’[37], followed by an additional normalization step to well-specific baseline readings."}, "[4]": {"test_system": "C57BL/6J DIO mice", "experiment": "i.p. insulin tolerance test in DIO mice (Fig. 2g,h; Extended Data Fig. 3a,b)", "format": "in vivo, mouse", "parameters": "unit not given here", "settings": "for AOC: ITT, Suppl. Fig. 3b", "protocol": "(§4) Glucose tolerance was assessed in 6 h fasted mice after i.p injection of 1.75 g glucose per kg body weight (DIO mice). Insulin tolerance was assessed in 6 h fasted mice after i.p. injection of either 0.75 U Insulin per […] body weight (DIO mice) or 1 U Insulin per […] body weight (db/db mice) (Humalog, Eli Lilly). Tail vein blood glucose was subsequently measured using a handheld glucometer (TheraSense Freestyle) at baseline and after 15, 30, 60 and 120 min."}, "[5]": {"test_system": "DIO mice", "experiment": "In vivo glucose-stimulated insulin secretion in DIO mice (Fig. 2i)", "parameters": "species or system mouse", "settings": "Figure 2i, individual mice"}, "[6]": {"target": "T1, hGLP-1R", "experiment": "Ligand-induced hGLP-1R-Rluc8 internalization (loss of BRET with Venus-KRAS) in HEK293T cells", "format": "cell-based", "settings": "HEK293 cells transfected with human GLP-1R; dose response, Fig. 1c; in words", "protocol": "as §2, §3"}, "[7]": {"test_system": "hGLP-1R", "experiment": "Ligand-induced cAMP production (BRET) in mouse MIN6 β-cells", "format": "cell-based, human", "settings": "Fig. 1e, in words", "protocol": "as §2, §3"}, "[8]": {"target": "T1, hGLP-1R", "experiment": "Ligand-induced hGLP-1R-Rluc8 internalization (BRET) in mouse MIN6 β-cells", "format": "cell-based", "settings": "Fig. 1f, in words", "protocol": "as §2, §3"}, "[9]": {"test_system": "Fabp4, Plin2, Arntl, Sema3c", "experiment": "PPAR target gene expression in liver (Fabp4, Plin2) and skeletal muscle (Arntl, Sema3c) of DIO mice (Fig. 2j–m)", "format": "in vivo, mouse", "protocol": "For assessment of acute drug effects, animals were treated with the respective compounds 4 h before tissue harvesting. Dissected tissues were frozen immediately on dry ice, and RNA was isolated using RNeasy Mini Kits (Qiagen). mRNA levels were determined using TaqMan probes for fatty acid binding protein 4 (Fabp4, Mm00445878_m1), perilipin-2 (Plin2, Mm00475794_m1), aryl hydrocarbon receptor nuclear translocator-like protein 1 (Arntl, Mm00500223_m), semaphorin 3 C (Sema3c, Mm00443121_m1) and hypoxanthine phosphoribosyltransferase 1 (Hprt, Mm03024075_m1) in custom-made low density array cards (Thermo Fisher) or in single assays on a QuantStudio 7 Real-Time PCR system. Target gene expression was normalized to HPRT and fold change was calculated relative to vehicle-treated controls."}, "[10]": {"test_system": "db/db mice", "experiment": "4-day treatment of obese db/db mice (50 nmol/kg/day): body weight, food intake, glucose, tolerance test (Fig. 6)", "format": "in vivo, mouse", "parameters": "blood glucose (legend: change in blood glucose) / AOC: unit not given here", "settings": "4 days, 50 nmol kg−1 per day, individual mice", "protocol": "as §1, §4"}, "[11]": {"target": "T1, hGLP-1R", "experiment": "Ligand-induced Mini-Gαs recruitment to hGLP-1R-GFP (BRET) in HEK293T cells", "format": "cell-based", "settings": "HEK293 cells transfected with human GLP-1R; dose response, Fig. 1a; in words", "protocol": "as §2, §3"}}, "note": "Values joined by “and” are separate entries in the source; they are usually repeats but may differ in a detail not shown here. Identical values can stand only once.", "data": [{"smiles": "CCO[C@@H](Cc1ccc(OCCc2ccc(OS(C)(=O)=O)cc2)cc1)C(=O)O", "note": "[tesaglitazar, (S)-2-ethoxy-3-(4-(4-((methylsulfonyl)oxy)phenethoxy)phenyl) propanoic acid]", "values": [{"measurement": "urinary albumin:creatinine ratio", "setting": "[1]", "result": "likewise not changed"}, {"measurement": "blood glucose", "setting": "[2]; DIO mice, Figure 2e, individual mice", "result": "110 mg/dL and 133 mg/dL and 143 mg/dL and 112 mg/dL and 107 mg/dL and 150 mg/dL and 108 mg/dL"}, {"measurement": "insulin", "setting": "[2]; DIO mice, Figure 2f, individual mice", "result": "1.06 ng/mL and 1.72 ng/mL and 0.73 ng/mL and 1.32 ng/mL and 2.56 ng/mL and 2.63 ng/mL and 1.88 ng/mL and 1.65 ng/mL"}, {"measurement": "HOMA IR", "setting": "[2]; animal 1 of the group", "result": 9.08}, {"measurement": "HOMA IR", "setting": "[2]; animal 2 of the group", "result": 17.60}, {"measurement": "HOMA IR", "setting": "[2]; animal 3 of the group", "result": 17.24}, {"measurement": "HOMA IR", "setting": "[2]; animal 4 of the group", "result": 17.30}, {"measurement": "HOMA IR", "setting": "[2]; animal 5 of the group", "result": 10.92}, {"measurement": "HOMA IR", "setting": "[2]; animal 6 of the group", "result": 7.15}, {"measurement": "HOMA IR", "setting": "[2]; animal 7 of the group", "result": 14.05}, {"measurement": "HOMA IR", "setting": "[2]; animal 8 of the group", "result": 6.44}, {"measurement": "GLP-1R-mediated Gαs recruitment", "setting": "[3]", "result": "had no effect"}, {"measurement": "AUC", "setting": "[4]; DIO mice, Figure 2h, AUC of the insulin tolerance test, individual mice, one conjugate mouse missinjected", "result": "78.83 and 85.05 and 79.73 and 58.88 and 108.1 and 99.38 and 88.2 and 80.48"}, {"measurement": "AOC", "setting": "[4]; animal 1 of the group", "result": 151.5}, {"measurement": "AOC", "setting": "[4]; animal 2 of the group", "result": 33}, {"measurement": "AOC", "setting": "[4]; animal 3 of the group", "result": 29.64}, {"measurement": "AOC", "setting": "[4]; animal 4 of the group", "result": 82.26}, {"measurement": "AOC", "setting": "[4]; animal 5 of the group", "result": 109.5}, {"measurement": "AOC", "setting": "[4]; animal 6 of the group", "result": 165}, {"measurement": "AOC", "setting": "[4]; animal 7 of the group", "result": 167}, {"measurement": "AOC", "setting": "[4]; animal 8 of the group", "result": 172}, {"measurement": "GSIS", "setting": "[5]", "result": "0.684 and 1.33 and 1.611 and 0.796 and 0.457 and 0.687 and 1.335 and 1.19"}, {"measurement": "GLP-1R internalization", "setting": "[6]", "result": "had no effect"}, {"measurement": "cAMP production", "setting": "[7]", "result": "had no effect"}, {"measurement": "GLP-1R internalization", "setting": "[8]", "result": "had no effect"}, {"measurement": "expression of known PPAR target genes in liver (Fabp4, Plin2) and skeletal muscle (Arntl, Sema3c)", "setting": "[9]; 30-week-old male DIO mice, 3 days, 50 nmol kg−1 per day, Fig. 2j–m, in words", "result": "induced expression of known PPAR target genes"}, {"measurement": "Fabp4", "setting": "[9]; DIO mice, Figure 2j, gene expression in liver, individual mice", "result": "8.80 and 6.98 and 3.76 and 4.88 and 3.64 and 11.43 and 6.16 and 1.27"}, {"measurement": "Plin2", "setting": "[9]; DIO mice, Figure 2k, gene expression in liver, individual mice", "result": "1.24 and 1.51 and 1.57 and 2.00 and 1.99 and 2.32 and 2.01 and 1.45"}, {"measurement": "Arntl", "setting": "[9]; DIO mice, Figure 2l, gene expression in skeletal muscle, individual mice, sheet notes an outlier based on grubbs test", "result": "1.55 and 1.75 and 2.01 and 1.16 and 1.39 and 1.34 and 1.60 and 1.28"}, {"measurement": "Sema3c", "setting": "[9]; DIO mice, Figure 2m, gene expression in skeletal muscle, individual mice, sheet notes an outlier based on grubbs test", "result": "1.70 and 1.69 and 1.38 and 1.05 and 1.02 and 1.72 and 1.95 and 2.14"}, {"measurement": "blood glucose (plasma glucose)", "setting": "[10]; Fig. 6c", "result": "482 and 462 and 314 and 500 and 452 and 446"}, {"measurement": "AOC", "setting": "[10]; Fig. 6f, baseline-corrected", "result": "9 and 124.5 and 63.27 and 252.8 and 257.2 and 64"}, {"measurement": "blood glucose (legend: change in blood glucose)", "setting": "[10]; Fig. 6d", "result": "33 and 120 and -49 and 69 and 52 and 7"}, {"measurement": "GLP-1R-mediated Gαs recruitment", "setting": "[11]", "result": "had no effect"}]}]}
